Laboratory results: patent US10544120B2, “Biaryl kinase inhibitors” (BRISTOL-MYERS SQUIBB COMPANY, priority 2015, dated 2020)

Biological target: GST-Xa-hAAK1 (Homo sapiens (Human), UniProt Q2M2I8)
Assay: AAK1 Kinase Assay
Assay type: biochemical
Conditions: bacterially expressed GST-Xa-hAAK1 3.5 nM; ATP 22 μM; fluoresceinated peptide 1.5 μM; 3 hours at room temperature; Caliper LabChip 3000
Experimental: The assays were performed in U-bottom 384-well plates. […] The reactions were initiated by the combination of bacterially expressed, GST-Xa-hAAK1 with substrates and test compounds. The reactions were incubated at room temperature for 3 hours and terminated by adding 60 μl of 35 mM EDTA buffer to each sample. The reactions were analyzed on the Caliper LabChip 3000 (Caliper, Hopkinton, Mass.) by electrophoretic separation of the fluorescent substrate and phosphorylated product. […] Compounds were dissolved at 10 mM in dimethylsulfoxide (DMSO) and evaluated at eleven concentrations. IC50 values were derived by non-linear regression analysis.

Chain of GST-Xa-hAAK1 (Q2M2I8 whole entry): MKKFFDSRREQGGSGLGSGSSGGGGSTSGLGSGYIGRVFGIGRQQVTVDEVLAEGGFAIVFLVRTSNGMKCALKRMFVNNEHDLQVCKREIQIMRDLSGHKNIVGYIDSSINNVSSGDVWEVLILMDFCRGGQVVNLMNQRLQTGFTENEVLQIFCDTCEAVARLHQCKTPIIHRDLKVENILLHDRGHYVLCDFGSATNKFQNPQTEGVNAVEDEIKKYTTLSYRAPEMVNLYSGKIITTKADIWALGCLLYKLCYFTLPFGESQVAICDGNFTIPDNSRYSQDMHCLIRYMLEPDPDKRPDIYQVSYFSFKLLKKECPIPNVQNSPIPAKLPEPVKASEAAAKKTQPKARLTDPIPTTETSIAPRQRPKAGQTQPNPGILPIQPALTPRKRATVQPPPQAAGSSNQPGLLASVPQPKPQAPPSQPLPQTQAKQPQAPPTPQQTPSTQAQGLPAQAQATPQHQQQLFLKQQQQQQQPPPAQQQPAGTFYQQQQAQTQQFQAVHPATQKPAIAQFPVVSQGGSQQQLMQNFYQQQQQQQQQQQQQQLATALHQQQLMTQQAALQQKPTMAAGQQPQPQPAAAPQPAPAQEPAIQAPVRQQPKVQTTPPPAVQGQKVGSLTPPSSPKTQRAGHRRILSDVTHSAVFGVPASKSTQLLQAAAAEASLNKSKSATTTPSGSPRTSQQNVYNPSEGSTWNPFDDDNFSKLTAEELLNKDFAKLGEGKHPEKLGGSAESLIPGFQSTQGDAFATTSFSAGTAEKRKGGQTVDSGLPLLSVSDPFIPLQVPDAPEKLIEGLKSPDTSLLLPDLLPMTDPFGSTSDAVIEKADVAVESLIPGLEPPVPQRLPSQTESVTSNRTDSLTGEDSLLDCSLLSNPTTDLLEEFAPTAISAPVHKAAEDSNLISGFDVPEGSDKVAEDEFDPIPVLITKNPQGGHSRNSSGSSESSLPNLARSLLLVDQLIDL

Compared with CC(C)C[C@](C)(N)COc1ccc(-c2ccnc(CF)c2)nc1C(F)F [Example 355, (S)-1-((6-(difluoromethyl)-2′-(fluoromethyl)-[2,4′-bipyridin]-5-yl)oxy)-2,4-dimethylpentan-2-amine], CC(C)C[C@](C)(N)COc1ccc(-c2ccnc(CF)c2)nc1CF [Example 324, (S)-1-((2′,6-bis(fluoromethyl)-[2,4′-bipyridin]-5-yl)oxy)-2,4-dimethylpentan-2-amine] is 4.4-fold higher in IC50: 1.1 nM for the first, 4.8 nM for the second. The first is the more potent here.

Compared with COC(=O)Nc1nccc(-c2ccc(OC[C@@](C)(N)CC(C)C)c(C(F)F)n2)n1 [Example 323, (S)-methyl (4-(5-((2-amino-2,4-dimethylpentyl)oxy)-6-(difluoromethyl)pyridin-2-yl)pyrimidin-2-yl)carbamate], COC(=O)Nc1nccc(-c2ccc(OC[C@@](C)(N)CC(C)C)c(C)n2)n1 [Example 312, (S)-methyl (4-(5-((2-amino-2,4 dimethylpentyl)oxy)-6-methylpyridin-2-yl)pyrimidin-2-yl)carbamate] is 6.1-fold higher in IC50: 0.8 nM for the first, 4.9 nM for the second.

First: CC(C)C[C@](C)(N)COc1ccc(-c2ccnc(Cl)n2)cc1C(F)(F)F [Example 370, (S)-1-(4-(2-chloropyrimidin-4-yl)-2-(trifluoromethyl)phenoxy)-2,4-dimethylpentan-2-amine]
Second: Cc1cc(-c2ccnc(Cl)n2)ccc1OC[C@@](C)(N)CC(C)C [Example 367, (S)-1-(4-(2-chloropyrimidin-4-yl)-2-methylphenoxy)-2,4-dimethylpentan-2-amine]
The IC50 of the first is 3.2-fold lower: 1.4 nM for the first, 4.5 nM for the second. The first is the more potent here.

Going from CC(C)C[C@](C)(N)COc1ccc(-c2ccnc(C(C)C)n2)cc1Cl [Example 480, (S)-1-(2-chloro-4-(2-isopropylpyrimidin-4-yl)phenoxy)-2,4-dimethylpentan-2-amine] to Cc1nc(-c2ccnc(N)c2)ccc1OC[C@@](C)(N)CC(C)C [Example 422, (S)-5-((2-amino-2,4-dimethylpentyl)oxy)-6-methyl-[2,4′-bipyridin]-2′-amine], the IC50 falls from 18 nM to 3.5 nM (5.1-fold).

Going from CC(C)C[C@](C)(N)COc1ccc(-c2ccnc(NC(=O)OC(C)C)n2)cc1C(F)(F)F [Example 311, (S)-isopropyl (4-(4-((2-amino-2,4-dimethylpentyl)oxy)-3-(trifluoromethyl)phenyl)pyrimidin-2-yl)carbamate] to COC(=O)Nc1nccc(-c2ccc(OC[C@@](C)(N)CC(C)C)c(C(F)(F)F)c2)n1 [Example 306, (S)-methyl(4-(4-((2-amino-2,4-dimethylpentyl)oxy)-3-(trifluoromethyl)phenyl)pyrimidin-2-yl)carbamate], the IC50 falls from 3.9 nM to 0.6 nM (6.5-fold). The second is the more potent here.

First: Cc1nccc(-c2cnc(OC[C@@](C)(N)CC(C)C)c(C)c2)n1 [Example 268, (S)-2,4-dimethyl-1-((3-methyl-5-(2-methylpyrimidin-4-yl)pyridin-2-yl)oxy)pentan-2-amine]
Second: Cc1nccc(-c2cnc(OC[C@@](C)(N)CC(C)C)c(-c3cnco3)c2)n1 [Example 298, (S)-2,4-dimethyl-1-((5-(2-methylpyrimidin-4-yl)-3-(oxazol-5-yl)pyridin-2-yl)oxy)pentan-2-amine]
The IC50 of the first is 4.1-fold lower: 11 nM for the first, 45 nM for the second. The first is the more potent here.

First: Cc1cc(-c2ccc(OC[C@@](C)(N)CC(C)C)c(C#N)c2)ncn1 [Example 436, (S)-2-((2-amino-2,4-dimethylpentyl)oxy)-5-(6-methylpyrimidin-4-yl)benzonitrile]
Second: CC(C)C[C@](C)(N)COc1ccc(-c2cc(Cl)ncn2)cc1C#N [Example 441, (S)-2-((2-amino-2,4-dimethylpentyl)oxy)-5-(6-chloropyrimidin-4-yl)benzonitrile]
The IC50 of the first is 2.4-fold lower: 6.2 nM for the first, 15 nM for the second.

Going from Cc1cc(-c2cc(C(F)(F)F)c(OCC(C)(N)CC(C)C)cn2)ccn1 (stereo in doubt) [Example 164, (R)-2,4-dimethyl-1-((2′-methyl-4-(trifluoromethyl)-[2,4′-bipyridin]-5-yl)oxy)pentan-2-amine] to Cc1cc(-c2ccc(OC[C@@](C)(N)CC(C)C)c(CF)n2)ccn1 [Example 320, (S)-1-((6-(fluoromethyl)-2′-methyl-[2,4′-bipyridin]-5-yl)oxy)-2,4-dimethylpentan-2-amine], the IC50 falls from 254 nM to 21 nM (12-fold).

Compared with Cc1cc(-c2ccc(OC[C@@](C)(N)CC(C)C)c(CF)n2)ncn1 [Example 387, (S)-1-((2-(fluoromethyl)-6-(6-methylpyrimidin-4-yl)pyridin-3-yl)oxy)-2,4-dimethylpentan-2-amine], Cc1nccc(-c2ccc(OC[C@@](C)(N)CC(C)C)c(CF)n2)n1 [Example 279] is 44-fold lower in IC50: 1010 nM for the first, 23 nM for the second. The second is the more potent here.

First: COC(=O)Nc1nccc(-c2cnc(OC[C@@](C)(N)CC(C)C)cc2C)n1 [Example 374, (S)-methyl (4-(6-((2-amino-2,4-dimethylpentyl)oxy)-4-methylpyridin-3-yl)pyrimidin-2-yl)carbamate]
Second: COC(=O)Nc1nccc(-c2cnc(OC[C@@](C)(N)CC(C)C)c(Cl)c2)n1 [Example 375, (S)-methyl (4-(6-((2-amino-2,4-dimethylpentyl)oxy)-5-chloropyridin-3-yl)pyrimidin-2-yl)carbamate]
The IC50 of the first is 130-fold higher: 339 nM for the first, 2.6 nM for the second. The second is the more potent here.

First: COc1cc(-c2ccc(OC[C@@](C)(N)CC(C)C)c(C#N)c2)ncn1 [Example 439, (S)-2-((2-amino-2,4-dimethylpentyl)oxy)-5-(6-methoxypyrimidin-4-yl)benzonitrile]
Second: Cc1cc(-c2ccc(OC[C@@](C)(N)CC(C)C)c(C(F)F)c2)ncn1 [Example 350, (S)-1-(2-(difluoromethyl)-4-(6-methylpyrimidin-4-yl)phenoxy)-2,4-dimethylpentan-2-amine]
The IC50 of the first is 3.3-fold higher: 128 nM for the first, 39 nM for the second. The second is the more potent here.

Compared with COC(=O)Nc1cc(-c2ccc(OC[C@@](C)(N)CC(C)C)c(C#N)c2)cnn1 [Example 300, (S)-methyl (5-(4-((2-amino-2,4-dimethylpentyl)oxy)-3-cyanophenyl)pyridazin-3-yl)carbamate], Cc1cc(-c2cnc(OC[C@@](C)(N)CC(C)C)c(Cl)c2)ncn1 [Example 445, (S)-1-((3-chloro-5-(6-methylpyrimidin-4-yl)pyridin-2-yl)oxy)-2,4-dimethylpentan-2-amine] is 4-fold lower in IC50: 246 nM for the first, 62 nM for the second.

First: Cc1nccc(-c2ccc(OC[C@](C)(N)CC(C)C)c(C)n2)n1 [Example 354, (R)-2,4-dimethyl-1-((2-methyl-6-(2-methylpyrimidin-4-yl)pyridin-3-yl)oxy)pentan-2-amine]
Second: Cc1nc(-c2ccnc(N)n2)ccc1OC[C@@](C)(N)CC(C)C [Example 313, (S)-4-(5-((2-amino-2,4-dimethylpentyl)oxy)-6-methylpyridin-2-yl)pyrimidin-2-amine]
The IC50 of the first is 130-fold higher: 321 nM for the first, 2.4 nM for the second. The second is the more potent here.

Going from Cc1cc(-c2cc(F)c(OC[C@@](C)(N)CC(C)C)cc2F)ncn1 [Example 435, (S)-1-(2,5-difluoro-4-(6-methylpyrimidin-4-yl)phenoxy)-2,4-dimethylpentan-2-amine] to Cc1cc2c(-c3ccc(OC[C@@](C)(N)CC(C)C)c(C(F)(F)F)c3)ccnc2[nH]1 [Example 327, (S)-2,4-dimethyl-1-(4-(2-methyl-1H-pyrrolo[2,3-b]pyridin-4-yl)-2-(trifluoromethyl)phenoxy)pentan-2-amine], the IC50 falls from 63 nM to 0.8 nM (79-fold).

First: CC(C)CC1(COc2ccc(-c3ccnc(C(F)F)c3)nc2C(F)F)CCN1 (stereo not drawn) [Example 326, 2′,6-bis(difluoromethyl)-5-((2-isobutylazetidin-2-yl)methoxy)-2,4′-bipyridine]
Second: Cc1nccc(-c2ccc(OC[C@@](C)(N)CC(C)C)c(C(F)(F)F)n2)n1 [Example 454, (S)-2,4-dimethyl-1-((6-(2-methylpyrimidin-4-yl)-2-(trifluoromethyl)pyridin-3-yl)oxy)pentan-2-amine]
The IC50 of the first is 18-fold higher: 42 nM for the first, 2.4 nM for the second.
